# According to US20230265151A1, “GIP/GLP1 CO-AGONIST COMPOUNDS” (priority 2020, published 2023):
# Where two headings read alike, the source gives them in different places.
# How the values were obtained:
# Format in all cases: cell-based
# hGCGR = biological target: T1, hGCGR (Homo sapiens, UniProt P47871); assay: Functional cAMP formation (HTRF) in HEK-293 clonal cells expressing hGCGR, 0.1% bovine casein, without or with 1.0% human serum albumin; details: geometric mean
# T1 construct: expressed in transfected cells
# T1 sequence (P47871 26-477): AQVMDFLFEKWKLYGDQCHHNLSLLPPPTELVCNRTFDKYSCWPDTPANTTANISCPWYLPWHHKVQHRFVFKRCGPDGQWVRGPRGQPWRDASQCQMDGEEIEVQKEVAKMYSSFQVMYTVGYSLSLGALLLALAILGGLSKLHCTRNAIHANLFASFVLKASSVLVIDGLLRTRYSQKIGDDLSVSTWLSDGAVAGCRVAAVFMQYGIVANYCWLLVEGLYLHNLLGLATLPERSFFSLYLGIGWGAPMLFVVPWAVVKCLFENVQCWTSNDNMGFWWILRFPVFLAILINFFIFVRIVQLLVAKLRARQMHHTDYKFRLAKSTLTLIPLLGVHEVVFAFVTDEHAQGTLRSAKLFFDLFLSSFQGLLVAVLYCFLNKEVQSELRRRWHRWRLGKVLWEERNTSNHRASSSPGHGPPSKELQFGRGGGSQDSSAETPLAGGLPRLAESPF
# In short: (§1)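 Cells were stimulated with peptide for 30 min at 37° C, then lysed in buffer carrying cAMP-d2 and anti-cAMP Eu3+-cryptate for a competitive HTRF read after at least 60 min at room temperature. The 665/620 nm ratio was converted to nM cAMP against a standard curve.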
# hGIPR = biological target: T2, hGIPR (Homo sapiens, UniProt P48546); assay: Functional cAMP formation (HTRF) in HEK-293 clonal cells expressing hGIPR, 0.1% bovine casein, without or with 1.0% human serum albumin; details: for EC50: geometric mean, read-out: hGIPR EC50, nM (SEM, n)
# T2 construct: expressed in transfected cells
# T2 sequence (P48546 22-466): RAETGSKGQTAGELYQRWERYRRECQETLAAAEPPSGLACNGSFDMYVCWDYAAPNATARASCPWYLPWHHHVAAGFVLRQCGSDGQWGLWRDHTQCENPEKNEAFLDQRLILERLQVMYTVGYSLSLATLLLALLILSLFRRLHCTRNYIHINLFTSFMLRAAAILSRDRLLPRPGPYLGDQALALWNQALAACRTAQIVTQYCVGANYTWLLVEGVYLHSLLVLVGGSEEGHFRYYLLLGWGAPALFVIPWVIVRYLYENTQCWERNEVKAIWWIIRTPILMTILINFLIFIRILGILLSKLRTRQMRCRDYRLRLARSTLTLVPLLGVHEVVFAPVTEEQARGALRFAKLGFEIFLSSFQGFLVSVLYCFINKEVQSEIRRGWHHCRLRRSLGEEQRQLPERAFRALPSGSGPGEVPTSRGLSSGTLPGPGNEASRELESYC
# In short: as §1
# hGLP-1R = hGLP-1R (Homo sapiens, UniProt P43220); assay: Functional cAMP formation (HTRF) in HEK-293 clonal cells expressing hGLP-1R, 0.1% bovine casein, without or with 1.0% human serum albumin; design: expressed in transfected cells; details: for EC50: geometric mean
# Sequence of hGLP-1R (P43220 24-463): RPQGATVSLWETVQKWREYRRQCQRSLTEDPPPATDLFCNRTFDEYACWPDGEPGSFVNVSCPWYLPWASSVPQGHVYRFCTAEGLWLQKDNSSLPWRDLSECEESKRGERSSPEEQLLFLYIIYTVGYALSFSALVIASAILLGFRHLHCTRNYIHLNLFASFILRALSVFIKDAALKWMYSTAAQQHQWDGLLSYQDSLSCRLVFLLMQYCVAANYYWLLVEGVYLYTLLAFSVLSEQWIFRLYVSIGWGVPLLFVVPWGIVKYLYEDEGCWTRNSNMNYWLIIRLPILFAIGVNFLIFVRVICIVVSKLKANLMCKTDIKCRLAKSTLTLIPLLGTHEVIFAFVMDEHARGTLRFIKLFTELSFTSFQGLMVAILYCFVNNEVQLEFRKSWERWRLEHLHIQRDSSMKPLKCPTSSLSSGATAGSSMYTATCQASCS
# In short: as §1
# [1] = hGCGR EC50, nM (SEM, n), cAMP, incubated at 37° C., 0.1% bovine casein (no human serum albumin)
# [2] = HEK293, read-out: hGIPR Emax, % ± SEM, percent of maximal response to GIP(1-42)NH2, 37° C., 0.1% bovine casein, arithmetic mean
# [3] = HEK293, read-out: hGLP-1R Emax, % ± SEM, percent of maximal response to GLP-1(7-36)NH2, 37° C., 0.1% bovine casein, arithmetic mean
# [4] = cAMP, incubated at 37° C., 0.1% bovine casein (no human serum albumin), read-out: hGCGR EC50, nM (SEM, n)
# [5] = HEK293, percent of maximal response to GIP(1-42)NH2, 37° C., 0.1% bovine casein, arithmetic mean, read-out: hGIPR Emax, % ± SEM
# [6] = cAMP, incubated at 37° C., 0.1% bovine casein (no human serum albumin), read-out: hGLP-1R EC50, nM (SEM, n)
# [7] = 0.1% bovine casein and 1.0% human serum albumin, 37° C., read-out: hGCGR EC50, nM (SEM, n)
# [8] = 0.1% bovine casein and 1.0% human serum albumin, 37° C.
# [9] = HEK293, 0.1% bovine casein and 1.0% human serum albumin, 37° C., percent of maximal response to GIP(1-42)NH2, read-out: hGIPR Emax, % ± SEM
# [10] = 0.1% bovine casein and 1.0% human serum albumin, 37° C., read-out: hGLP-1R EC50, nM (SEM, n)
Compound,EC50 (hGCGR; [1]),Emax (hGIPR; [2]),Emax (hGLP-1R; [3]),"EC50 (hGLP-1R; hGLP-1R EC50, nM (SEM, n), cAMP, incubated at 37° C., 0.1% bovine casein (no human serum albumin))",EC50 (hGCGR; [4]),Emax (hGIPR; [5]),EC50 (hGLP-1R; [6]),EC50 (hGCGR; [7]),EC50 (hGIPR; [8]),Emax (hGIPR; [9]),EC50 (hGLP-1R; [10]),"Emax (hGLP-1R; HEK293, 0.1% bovine casein and 1.0% human serum albumin, 37° C., percent of maximal response to GLP-1(7-36)NH2, read-out: hGLP-1R Emax, % ± SEM)","EC50 (hGIPR; cAMP, incubated at 37° C., 0.1% bovine casein (no human serum albumin))","Emax (hGLP-1R; HEK293, percent of maximal response to GLP-1(7-36)NH2, 37° C., 0.1% bovine casein, arithmetic mean, read-out: hGLP-1R Emax, % ± SEM)"
CC[C@H](C)[C@H](NC(=O)[C@H](CC(C)C)NC(=O)[C@](C)(Cc1ccc(O)cc1)NC(=O)[C@H](CCCCNC(=O)COCCOCCNC(=O)COCCOCCNC(=O)[C@@H](N)CCCCNC(=O)CCCCCCCCCCCCC(=O)O)NC(=O)[C@@H](NC(=O)[C@H](Cc1ccccc1)NC(=O)[C@H](CCC(=O)O)NC(=O)C(C)(C)NC(=O)[C@H](CCC(N)=O)NC(=O)[C@H](C)NC(=O)[C@H](CCCCNC(=O)COCCOCCNC(=O)COCCOCCNC(=O)[C@@H](N)CCCCNC(=O)CCCCCCCCCCCCC(=O)O)NC(=O)[C@H](CCCN)NC(=O)[C@H](CC(=O)O)NC(=O)[C@H](CC(C)C)NC(=O)[C@](C)(CC(C)C)NC(=O)[C@@H](NC(=O)C(C)(C)NC(=O)[C@@H](NC(=O)[C@H](CC(=O)O)NC(=O)[C@H](CO)NC(=O)[C@@H](NC(=O)[C@](C)(Cc1ccccc1F)NC(=O)[C@@H](NC(=O)CNC(=O)[C@H](CCC(=O)O)NC(=O)C(C)(C)NC(=O)[C@@H](N)Cc1ccc(O)cc1)[C@@H](C)O)[C@@H](C)O)C(C)C)[C@@H](C)CC)[C@@H](C)CC)C(=O)N[C@@H](CCC(=O)O)C(=O)NCC(=O)NCC(=O)N1CCC[C@H]1C(=O)N[C@@H](CO)C(=O)N[C@@H](CO)C(=O)NCC(=O)N[C@@H](C)C(=O)N1CCC[C@H]1C(=O)N1CCC[C@H]1C(=O)N1CCC[C@H]1C(=O)N[C@@H](CO)C(N)=O [Example 166],> 9950 nM,97%,90.3%,0.192 nM,–,–,–,–,–,–,–,–,–,–
CC[C@H](C)[C@H](NC(=O)[C@H](CC(C)C)NC(=O)[C@](C)(Cc1ccc(O)cc1)NC(=O)[C@H](CCCCNC(=O)[C@@H](N)CCCCNC(=O)[C@@H](N)CCCCNC(=O)CC[C@H](NC(=O)CCCCCCCCCCCCC(=O)O)C(=O)O)NC(=O)[C@@H](NC(=O)[C@H](Cc1ccccc1)NC(=O)[C@H](CCC(=O)O)NC(=O)C(C)(C)NC(=O)[C@H](CCC(N)=O)NC(=O)[C@H](C)NC(=O)[C@H](CCCCNC(=O)[C@@H](N)CCCCNC(=O)[C@@H](N)CCCCNC(=O)CC[C@H](NC(=O)CCCCCCCCCCCCC(=O)O)C(=O)O)NC(=O)[C@H](CCCN)NC(=O)[C@H](CC(=O)O)NC(=O)[C@H](CC(C)C)NC(=O)[C@](C)(CC(C)C)NC(=O)[C@@H](NC(=O)C(C)(C)NC(=O)[C@@H](NC(=O)[C@H](CC(=O)O)NC(=O)[C@H](CO)NC(=O)[C@@H](NC(=O)[C@](C)(Cc1ccccc1F)NC(=O)[C@@H](NC(=O)CNC(=O)[C@H](CCC(=O)O)NC(=O)C(C)(C)NC(=O)[C@@H](N)Cc1ccc(O)cc1)[C@@H](C)O)[C@@H](C)O)C(C)C)[C@@H](C)CC)[C@@H](C)CC)C(=O)N[C@@H](CCC(=O)O)C(=O)NCC(=O)NCC(=O)N1CCC[C@H]1C(=O)N[C@@H](CO)C(=O)N[C@@H](CO)C(=O)NCC(=O)N[C@@H](C)C(=O)N1CCC[C@H]1C(=O)N1CCC[C@H]1C(=O)N1CCC[C@H]1C(=O)N[C@@H](CO)C(N)=O [Example 168],> 9950 nM,93%,93.3%,–,–,–,–,–,–,–,–,–,–,–
CC[C@H](C)[C@H](NC(=O)[C@H](CC(C)C)NC(=O)[C@](C)(Cc1ccc(O)cc1)NC(=O)[C@@H](CCC(=O)O)NC(=O)[C@@H](NC(=O)[C@H](Cc1ccccc1)NC(=O)[C@H](CCC(=O)O)NC(=O)C1(NC(=O)[C@H](CCC(N)=O)NC(=O)[C@H](C)NC(=O)[C@H](CCCCNC(=O)COCCOCCNC(=O)COCCOCCNC(=O)CC[C@H](NC(=O)CCCCCCCCCCCCC(=O)O)C(=O)O)NC(=O)[C@H](CCCN)NC(=O)[C@H](CC(=O)O)NC(=O)[C@H](CC(C)C)NC(=O)[C@](C)(CC(C)C)NC(=O)[C@@H](NC(=O)[C@H](CO)NC(=O)[C@H](Cc2ccncc2)NC(=O)[C@H](CC(=O)O)NC(=O)[C@H](CO)NC(=O)[C@@H](NC(=O)[C@](C)(Cc2ccccc2F)NC(=O)[C@@H](NC(=O)CNC(=O)[C@H](CCC(=O)O)NC(=O)C(C)(C)NC(=O)[C@@H](N)Cc2ccc(O)cc2)[C@@H](C)O)[C@@H](C)O)[C@@H](C)CC)CCCC1)[C@@H](C)CC)C(=O)N[C@@H](CCC(=O)O)C(=O)NCC(=O)NCC(=O)N[C@@H](CCCCNC(=O)COCCOCCNC(=O)COCCOCCNC(=O)CC[C@H](NC(=O)CCCCCCCCCCCCC(=O)O)C(=O)O)C(=O)N[C@@H](CO)C(=O)N[C@@H](CO)C(=O)NCC(=O)N[C@@H](C)C(=O)N1CCC[C@H]1C(=O)N1CCC[C@H]1C(=O)N1CCC[C@H]1C(=O)N[C@@H](CO)C(N)=O [Example 170],–,–,–,–,> 9950 nM,93.9%,1.03 nM,–,–,–,–,–,–,–
CCCCCCCCCCCC(=O)N[C@@H](CCC(=O)NCCOCCOCC(=O)NCCOCCOCC(=O)NCCCC[C@H](NC(=O)CNC(=O)CNC(=O)[C@H](CCC(=O)O)NC(=O)[C@@H](NC(=O)[C@H](CC(C)C)NC(=O)[C@](C)(Cc1ccc(O)cc1)NC(=O)[C@@H](CCC(=O)O)NC(=O)[C@@H](NC(=O)[C@H](Cc1ccccc1)NC(=O)[C@H](CCC(=O)O)NC(=O)C(C)(C)NC(=O)[C@H](CCC(N)=O)NC(=O)[C@H](C)NC(=O)[C@H](CCCCNC(=O)COCCOCCNC(=O)COCCOCCNC(=O)CC[C@H](NC(=O)CCCCCCCCCCC)C(=O)O)NC(=O)[C@H](CCCN)NC(=O)[C@H](CC(=O)O)NC(=O)[C@H](CC(C)C)NC(=O)[C@](C)(CC(C)C)NC(=O)[C@@H](NC(=O)[C@H](CO)NC(=O)[C@H](Cc1ccncc1)NC(=O)[C@H](CC(=O)O)NC(=O)[C@H](CO)NC(=O)[C@@H](NC(=O)[C@](C)(Cc1ccccc1)NC(=O)[C@@H](NC(=O)CNC(=O)[C@H](CCC(=O)O)NC(=O)C(C)(C)NC(=O)[C@@H](N)Cc1ccc(O)cc1)[C@@H](C)O)[C@@H](C)O)[C@@H](C)CC)[C@@H](C)CC)[C@@H](C)CC)C(=O)N[C@@H](CO)C(=O)N[C@@H](CO)C(=O)NCC(=O)N[C@@H](C)C(=O)N1CCC[C@H]1C(=O)N1CCC[C@H]1C(=O)N1CCC[C@H]1C(=O)N[C@@H](CO)C(N)=O)C(=O)O [Example 172],–,–,–,–,> 9950 nM,89.9 ± 1.05%,0.141 nM,> 9950 nM,0.385 nM,80.1 ± 2.06%,7.7 nM,112 ± 10.3%,–,–
CCCCCCCCCCCC(=O)N[C@@H](CCC(=O)NCCOCCOCC(=O)NCCOCCOCC(=O)NCCCC[C@H](NC(=O)CNC(=O)CNC(=O)[C@H](CCC(=O)O)NC(=O)[C@@H](NC(=O)[C@H](CC(C)C)NC(=O)[C@](C)(Cc1ccc(O)cc1)NC(=O)[C@@H](CCC(=O)O)NC(=O)[C@@H](NC(=O)[C@](C)(Cc1ccccc1)NC(=O)[C@H](CCC(=O)O)NC(=O)C(C)(C)NC(=O)[C@H](CCC(N)=O)NC(=O)[C@H](C)NC(=O)[C@H](CCCCNC(=O)COCCOCCNC(=O)COCCOCCNC(=O)CC[C@H](NC(=O)CCCCCCCCCCC)C(=O)O)NC(=O)[C@H](CCCN)NC(=O)[C@H](CC(=O)O)NC(=O)[C@H](CC(C)C)NC(=O)[C@](C)(CC(C)C)NC(=O)[C@@H](NC(=O)[C@H](CO)NC(=O)[C@H](Cc1ccncc1)NC(=O)[C@H](CC(=O)O)NC(=O)[C@H](CO)NC(=O)[C@@H](NC(=O)[C@](C)(Cc1ccccc1)NC(=O)[C@@H](NC(=O)CNC(=O)[C@H](CCC(=O)O)NC(=O)C(C)(C)NC(=O)[C@@H](N)Cc1ccc(O)cc1)[C@@H](C)O)[C@@H](C)O)[C@@H](C)CC)[C@@H](C)CC)[C@@H](C)CC)C(=O)N[C@@H](CO)C(=O)N[C@@H](CO)C(=O)NCC(=O)N[C@@H](C)C(=O)N1CCC[C@H]1C(=O)N1CCC[C@H]1C(=O)N1CCC[C@H]1C(=O)N[C@@H](CO)C(N)=O)C(=O)O [Example 173],–,–,–,–,> 9950 nM,87.8 ± 6.22%,0.343 nM,> 9950 nM,1.24 nM,92.9 ± 6.91%,29.7 nM,–,0.0155 nM,89.9 ± 2.72%
